# Reference: US20080153800A1, “NOVEL CRYSTALLINE COMPOUND” (AstraZeneca AB, priority 2006, published 2008)
# Legend:
# [1] = Conversion of the crystalline form in aqueous media; format: physicochemical
# Description: International patent application PCT/GB2006/002471 (WO2007/007041) discloses the Agent in 2 different crystalline forms (Example 39k). […] This form will hereinafter be referred to as Form A′. The preparation of Form A is also described in the Example hereinafter.
# This form of the Agent will hereinafter be referred to as Form B.
# [2] = Competitive slurries of Form A and Form B in a range of solvents; format: physicochemical
# Description: Form B also has a much higher melting endotherm.
conversion to other forms in aqueous media [1],relative stability of crystalline forms in competitive slurries [2],SMILES
convert to the amorphous form,–,"CC(C)Oc1cc(Oc2cnc(C(=O)N3CCC3)cn2)cc(C(=O)Nc2cc[nH]n2)c1 [Form A, 3-{[5-(Azetidin-1-ylcarbonyl)pyrazin-2-yl]oxy}-5-[(1-methylethyl)oxy]-N-1H-pyrazol-3-ylbenzamide]"
convert to the amorphous form,–,"CC(C)Oc1cc(Oc2cnc(C(=O)N3CCC3)cn2)cc(C(=O)Nc2cc[nH]n2)c1 [Form A′, 3-{[5-(azetidin-1-ylcarbonyl)pyrazin-2-yl]oxy}-5-[(1-methylethyl)oxy]-N-1H-pyrazol-3-ylbenzamide]"

SMILES,conversion to other forms in aqueous media [1],relative stability of crystalline forms in competitive slurries [2]
"CC(C)Oc1cc(Oc2cnc(C(=O)N3CCC3)cn2)cc(C(=O)Nc2cc[nH]n2)c1 [Form B, 3-{[5-(azetidin-1-ylcarbonyl)pyrazin-2-yl]oxy}-5-[(1-methylethyl)oxy]-N-1H-pyrazol-3-ylbenzamide]",does not significantly convert to other forms,most stable form
